Measured values published in US4342762A, “Basic ethers and pharmaceutical compositions containing the same” (Egyt Gyogyszervegyeszeti Gyar, priority 1979, dated 1982).

Legend:
[1] = acute oral toxicity, graphic method of Litchfield-Wilcoxon, 4 days observation; conditions: mouse, in vivo; oral, 20 ml/kg, both sexes 18-24 g, 4 days observation
Method: The analgesic effect of the new compounds according to the invention was determined by the method of Wirth et al. (Wirth, W., Gosswald, R., Horlein. K., Risse, Kl. H., Kreiskott, H.: Arch. Int. Pharmacodyn. 115, 1; (1958)). 0.4 ml of 0.5% acetic acid was administered i.p. to white mice, and the characteristic "writhing" reactions were counted after 5 minutes. […] The results are given in Table I. The toxicity data determined on white mice of both sexes weighing 18-24 g belonging to the strain CFLP are also given. Administration was effected with an oral dose of 20 ml/kg. After treatment the animals were kept under observation for 4 days. The toxicity data (LD50 mg/kg) were determined by the graphic method of Litchfield-Wilcoxon [Litchfield, J.T., Wilcoxon, E. W., J Pharmacol. Exp. Therap. 96, 99; (1949)].

[2] = test system: white mice; assay: analgesic effect, inhibition of acetic acid "writhing" reactions (Wirth et al.); format: in vivo; conditions: for ED50: Mus musculus, po, read-out: Analgesic effect ED50; for Analgesic effect Therap.index: therapeutic index
Method: The analgesic effect of the new compounds according to the invention was determined by the method of Wirth et al. (Wirth, W., Gosswald, R., Horlein. K., Risse, Kl. H., Kreiskott, H.: Arch. Int. Pharmacodyn. 115, 1; (1958)). 0.4 ml of 0.5% acetic acid was administered i.p. to white mice, and the characteristic "writhing" reactions were counted after 5 minutes. The compounds to be tested had been orally administered an hour before the administration of the acetic acid. The activity is expressed as a percentage of the inhibition referred to the data observed on the control group. The results are given in Table I. The toxicity data determined on white mice of both sexes weighing 18-24 g belonging to the strain CFLP are also given. Administration was effected with an oral dose of 20 ml/kg. After treatment the animals were kept under observation for 4 days. The toxicity data (LD50 mg/kg) were determined by the graphic method of Litchfield-Wilcoxon [Litchfield, J.T., Wilcoxon, E. W., J Pharmacol. Exp. Therap. 96, 99; (1949)].

[3] = test system: white mice; assay: inhibition of maximal electroshock (MES) (Swinyard et al.); format: in vivo; conditions: for ED50: Mus musculus, oral, 1 hour before electroshock 50 Hz, 45 mA, 0.4 sec, total inhibition of tonic extensor convulsion; for Inhibition of MES Th. I.: therapeutic index
Method: (§1) The antiepileptic effect was investigated on white mice, after oral administration. The inhibition of maximal electroshock (MES) was determined by the method of Swinyard et al. [Swinyard et al. J. Pharmacol. Exp. Ther. 106, 319-330 (1952)]. White mice weighing 20-25 g were subjected to electric shock through corneal electrodes (Parameters: 50 Hz, 45 mA, 0.4 sec.). The total inhibition of the tonic extensor convulsion was considered as criterion of the anti-convulsive effect. The test-substance had been orally administered one hour before the electroshock. The inhibition of pentetrazole convulsion was determined on white mice by the modified method of Banziger and Hane [Banziger, R., Hane, L.D. Arch. Int. Pharmacodyn. 167, 245-249; (1967)]. I." stands for "therapeutic index."

[4] = test system: white mice; assay: inhibition of nicotine-lethality (Stone); format: in vivo; conditions: for ED50: Mus musculus, oral, 1 hour before 1.4 mg/kg nicotine
Method: The inhibition of nicotine-lethality was determined on white mice by the method of Stone [Stone, C. A., Mecklenburg, K. L., Torchiana, M. L., Arch. Int. Pharmacodyn.

[5] = test system: white mice; assay: inhibition of motility, Dews apparatus (Borsy); format: in vivo; conditions: for ED50: Mus musculus, oral pretreatment 30 minutes, observation 30 minutes; for Inhibition of motility Th.I.: therapeutic index
Method: (§2) The effect on the inhibition of the oriental activity (inhibition of the motility) was investigated on white mice in a Dews apparatus applied with 8 canals by the method of Borsy [Borsy, J., Csanyi, E., Lazar, I., Arc. Int. Pharmacodyn. 124, 1-2 (1960)]. After an oral pretreatment of 30 minutes the number of light-interruptions due to the movements of groups consisting of 3-3 mice was registered. The observation lasted for 30 minutes. The effect of the compounds exerted on the duration of hexobarbital-narcosis was tested by the method of Kaergaard [Kaergaard, N. C., Magnussen, M. P., Kampmann, E., Frey, H. H., Arc. Int. Pharmacodyn. 2, 170; (1967)]. Groups of animals consisting of 6-6 mice were treated.

[6] = test system: mice; assay: potentiating of hexobarbital-narcosis (Kaergaard); format: in vivo; conditions: for ED50: Mus musculus, iv, 40 mg/kg hexobarbital i.v., positive: sleeping period at least 2.5 times control; for Potentiating of narcosis Th.I.: therapeutic index
Method: as §2

[7] = test system: white mice; assay: inhibition of pentetrazole convulsion (modified Banziger and Hane); format: in vivo; conditions: for ED50: Mus musculus, oral; for Inhibition of pentetrazole convulsion Th. I.: therapeutic index
Method: as §1

| Structure (SMILES) | LD50 at 96 h [1] [mg/kg] | ED50 [2] [mg/kg] | Analgesic effect Therap.index [2] | ED50 [3] [mg/kg] | Inhibition of MES Th. I. [3] | ED50 [4] [mg/kg] | Inhibition of nicotine-lethality Therapeutic index [4] | ED50 [5] [mg/kg] | Inhibition of motility Th.I. [5] | ED50 [6] [mg/kg] | Potentiating of narcosis Th.I. [6] | ED50 [7] [mg/kg] | Inhibition of pentetrazole convulsion Th. I. [7] |
| --- | --- | --- | --- | --- | --- | --- | --- | --- | --- | --- | --- | --- | --- |
| CN(C)CCCOC1(Cc2ccccc2)CC2CCC1(C)C2(C)C (racemic) [Example 1, (±)-2-benzyl-2-(3'-dimethylaminopropoxy)-1,7,7-trimethyl-bicyclo(2,2,1)heptane] | 1600 | 120 | 13.3 | 130 | 12.3 | 38 | 42.1 | 110 | 14.5 | 90 | 17.7 | – | – |
| CCN(CC)CCOC1(Cc2ccccc2)CC2CCC1(C)C2(C)C (single isomer, unassigned) [Example 8, D-(+)-2-benzyl-2-(2'-diethylaminoethoxy)-1,7,7-trimethyl-bicyclo(2,2,1)heptane] | 850 | 45 | 18.9 | 30 | 28.3 | 11 | 77.3 | 60 | 14.2 | 60 | 14.2 | 20 | 42.5 |
| CN(C)CCCOC1(Cc2ccccc2)CC2CCC1(C)C2(C)C (single isomer, unassigned) [Example 7, D-(-)-2-benzyl-2-(3'-dimethylaminopropoxy)-1,7,7-trimethyl-bicyclo(2,2,1)heptane] | 1200 | 70 | 17.1 | 56 | 21.4 | 25 | 48.0 | 90 | 13.3 | – | – | 66 | 18.2 |
| CC(COC1(Cc2ccccc2)CC2CCC1(C)C2(C)C)CN(C)C (racemic) [Example 2, (±)-2-benzyl-2-(3'-dimethylamino-2'-methylpropoxy)-1,7,7-trimethyl-bicyclo(2,2,1) heptane] | 1700 | 85 | 20.0 | 120 | 14.2 | 20 | 85,0 | – | – | 15 | 113.3 | 88 | 19.3 |
